“Also recorded” adds a separate entry of the source.
Key:
[1] = Evaluation of food intake and body weight, oral gavage for 5 days; assay type: in vivo, female Sprague-Dawley rats
Experimental: Female female Sprague-Dawley rats were used for all experiments. Rats were housed in a temperature-controlled room (22±1° C.) under a 12-h light (6:00-18:00)/12-h cycle, given free access to water, and fed an libitum on a standard chow unless otherwise stated for a high-fat diet experiment. All procedures using animals were approved by the local ethics committee and followed the guidelines for experiments in animals (European Economic Community Council Directive 86/609/EEC).
For measurement of food consumption rats were individually housed in cage and given a high-fat diet for a week before the beginning of the experiment. […] Rat with as libitum access to high-fat food were orally given dimethylaminoethyl dodecyl ether (37.5 or 50 μl dissolved in 1% methycellulose) through a gastric gavage or 1% methyl cellulose at the onset of the dark cycle (18:00) and food intake was measured at 15 h following dimethylaminoethyl dodecyl ether administration from pre-weighed portions of food dispensed from were cage top. Cages were carefully monitored for evidence of food spillage or grinding.

[2] = biological target: T1, Lipase and colipase, purified from human pancreatic gland (Homo sapiens, UniProt P04118+P16233); test: Determination of lipolysis by colipase/lipase (pH-stat, tributyrine emulsion with NaTDC); assay type: biochemical
T1 construct: Lipase, Purified from Human Pancreatic Gland; Colipase, Purified from Human Pancreatic Gland; from tissue; host or cells: human pancreatic gland
T1 sequence (P16233 17-465): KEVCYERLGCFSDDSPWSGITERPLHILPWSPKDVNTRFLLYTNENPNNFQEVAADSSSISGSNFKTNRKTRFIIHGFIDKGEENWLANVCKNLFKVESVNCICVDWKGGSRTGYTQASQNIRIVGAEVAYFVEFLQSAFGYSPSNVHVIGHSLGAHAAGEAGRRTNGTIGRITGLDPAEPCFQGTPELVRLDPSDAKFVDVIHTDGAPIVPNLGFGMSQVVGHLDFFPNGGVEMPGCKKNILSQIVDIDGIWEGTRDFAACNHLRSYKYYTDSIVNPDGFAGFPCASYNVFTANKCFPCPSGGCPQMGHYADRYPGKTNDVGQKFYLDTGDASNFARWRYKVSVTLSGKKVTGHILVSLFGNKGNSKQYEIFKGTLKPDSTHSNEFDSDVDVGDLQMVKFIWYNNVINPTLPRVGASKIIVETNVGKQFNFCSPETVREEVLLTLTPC
T1 sequence (P04118 23-112): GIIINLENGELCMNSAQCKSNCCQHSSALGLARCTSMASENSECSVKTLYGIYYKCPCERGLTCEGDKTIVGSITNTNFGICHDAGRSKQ
From the text: Determination of Lipolysis by Colipase/Lipase
The most important enzyme in the gastro-intestinal tract being responsible for the hydrolysis of lipids/fats in the gastro-intestinal tract is lipase, pancreatic lipase, together with its protein cofactor colipase. These are two proteins, which are secreted from the pancreatic gland. […] The colipase binds to lipase in a molar 1:1 complex and then moves the complex to the triglyceride surface. In the binding between lipase and colipase hydrogen bonds are present, between arg38 of the colipase and ser343 of the lipase and from glu15 of the colipase and the asn241 of the lipase molecules. In the binding of colipase to the substrate (the lipids/fat) there are both hydrophobic bonds as well as ion-ion bonds present. By an isolated lack of colipase it has been shown that colipase has a decisive role for the lipolysis in the gastro-intestinal tract of humans. Pure lipase and colipase have been produced in accordance with the following.
Lipase, Purified from Human Pancreatic Gland
Colipase, Purified from Human Pancreatic Gland
0.5 ml of tributyrine is mixed with 15 ml of a buffer containing 1 mM CaCl2, 150 mM NaCl, 2 mM tris-maleate, pH 7.0 and 4 mM NaTDC (sodium taurodeoxycholate). An emulsion is obtained by continuous stirring. pH is titrated by means of a pH-state, where 0.1 N NaOH is added automatically to keep an constant pH. 10 μl of lipase is added from a stock solution containing 70 units of lipase/ml, followed by 10 μl of colipase from a stock solution containing 1 mg colipase/ml. An activity is registered which is determined to be 100%. An addition of an inhibitor is then made. A new assay is used for every concentration, prepared in the same way. The inhibition is registered as percentage of control. A dose-response plot is obtained for the compounds having an inhibiting ability.

[3] = Serum PYY 3-36, leptin and ghrelin after 5 days of oral administration; assay type: in vivo, female Sprague-Dawley rats
Experimental: Blood was drawn in rats from the intra-orbital bullar plexus under anaesthesia and collected in ice-cold tubes. Serum was obtained by centrifugation at 3000 g for 15 min at 4° C. For acute effect of dimethylaminoethyl dodecyl ether on blood lipids, overnight-fasted rats were given 200 μl dimethylaminoethyl dodecyl ether plus 1 ml (200 mg) Intralipids orally through a gastric gavage and blood collected at 0, 30, 60, 120 and 180 min. Plasma triglycerides was determined with an Sigma diagnostics kit. Plasma fatty acids were measured by NEFAC kit (Wako chemicals GmbH, Neuss, Germany). Plasma PYY (3-36) and leptin were measured with the PYY Enzyme Immunossay kit and leptin Enzyme Immunossay (Phoenix Pharmaceuticals, USA)
Stat View program was used for statistics analysis. The data were analyzed using two-way ANOVA followed by post hoc tests for comparison of individual differences. Student's t-test was used for the analysis of triglycerides, PYY3-36, leptin and ghrelin data.

Pancreatic lipase = Pancreatic lipase activity and protein expression in pancreas after 5 days of treatment; assay type: in vivo, rat; details: pancreas of rats given 50 μl for 5 days by gastric gavage
Experimental: At the end of experiment, rats were killed and the pancreas collected for assay of lipase activity and protein expression. Lipase activity was determined with pH stat titration (Mettle Components DK 10, DK 11, DV11) using tributyrin dispersed in bile salt as substrate (Borgström & Erlanson). Lipase expression was analysed by western blot.
Pancreas was homogenized in 0.5% digitonin buffer containing 10 mM sodium phosphate (pH6.0) and 1 mini complete tablet on ice. After centrifuge at 14000 g, 4° C. for 10 min, the supernatant was collected and heating at 65° C., 15 min for inactivate endogenous lipase. The protein amount was measured by BCA method. Equal amount (50 μg) protein was load on 10% SDS-polyacrylamide gels, transferred to the nitrocellulose membranes and then incubated with anti-lipase antibody in the dilution 1:1000 at 4° C. overnight. Pancreatic lipase protein was detected using a horseradish peroxidase-conjugated donkey anti-rabbit antibody (1:8000) for 60 min at room temperature followed with an enhanced chemiluminescence (Pierce).

- Activity Inhibitor ([2]; amount of inhibitor 0.97 μmol, control activity 0.313): 0.237 µmol/min
- Activity Inhibitor ([2]; amount of inhibitor 1.95 μmol, control activity 0.301): 0.204 µmol/min
- Activity Inhibitor ([2]; amount of inhibitor 3.89 μmol, control activity 0.308): 0.127 µmol/min
- Activity Inhibitor ([2]; amount of inhibitor 6.81 μmol, control activity 0.319): 0.069 µmol/min
- Activity Inhibitor ([2]; amount of inhibitor 9.73 μmol, control activity 0.327): 0.033 µmol/min
- Activity Inhibitor ([2]; amount of inhibitor 14.59 μmol, control activity 0.328): 0.013 µmol/min
- Activity Inhibitor ([2]; amount of inhibitor 19.46 μmol, control activity 0.332): 0 µmol/min
SMILES: CCCCCCCCCCCCOCCN(C)C [dimethylaminoethyl dodecyl ether]
- Food intake vs vehicle ([1]; rats fed high-fat diet, 25 μl orally): no food intake inhibition
- Food intake vs vehicle ([1]; rats fed high-fat diet, 37.5 μl by gastric gavage): a trend towards reduced food intake was observed, however this did not reach statistic significance
- Food intake vs vehicle ([1]; rats fed high-fat diet, 50 μl by gastric gavage, up to 5 days): highly significant reduction in food intake; also recorded: significantly inhibited
- Body weight vs non-treated group ([1]; rats fed high-fat diet, 50 μl daily for 5 days): decreased body weight; also recorded: significantly loss of body weight
- Food intake vs controls ([1]; rats fed low-fat diet, 37.5 and 50 μl, 5 testing days): failed to decrease food intake
- Serum PYY 3-36 level vs controls ([3]; fasted rats, 50 μl for 5 days): no difference
- Serum ghrelin level vs controls ([3]; fasted rats, 50 μl for 5 days): markedly increased
- Serum leptin level vs controls ([3]; fasted rats, 50 μl for 5 days): markedly decreased; also recorded: significantly decreased
- Serum PYY3-36 level ([3]; treated rats, 5 days, control rats 0.86±0.24): 0.85 ± 0.26 ng/mL
- Pancreatic lipase activity vs controls (Pancreatic lipase): not changed
- Pancreatic lipase protein expression vs controls (western blot) (Pancreatic lipase): slightly reduced; also recorded: reduced

Reference: patent publication US7425577B2, “Lipase-colipase inhibitor” (Forskarpatent 1 SYD AB, priority 2003, dated 2008)
